Like-named read-outs stand apart in the source and are kept apart here. Where no end group is shown, it is not given here.
How the values were obtained:
[1] = cited from earlier work
hypotensive action of BK = conditions: rats, cited from earlier work
BK action = conditions: rabbits; subcutaneous injection; cited from earlier work
[2] = target: T1, bradykinin receptors in Rat Uterus (Rattus norvegicus, UniProt P25023); test: Rat Uterus functional assay; type: cell-based
T1 construct: describes the Rat Uterus assay used to analyze the present compounds; from tissue; host or cells: isolated rat uterus
T1 sequence (P25023 1-396): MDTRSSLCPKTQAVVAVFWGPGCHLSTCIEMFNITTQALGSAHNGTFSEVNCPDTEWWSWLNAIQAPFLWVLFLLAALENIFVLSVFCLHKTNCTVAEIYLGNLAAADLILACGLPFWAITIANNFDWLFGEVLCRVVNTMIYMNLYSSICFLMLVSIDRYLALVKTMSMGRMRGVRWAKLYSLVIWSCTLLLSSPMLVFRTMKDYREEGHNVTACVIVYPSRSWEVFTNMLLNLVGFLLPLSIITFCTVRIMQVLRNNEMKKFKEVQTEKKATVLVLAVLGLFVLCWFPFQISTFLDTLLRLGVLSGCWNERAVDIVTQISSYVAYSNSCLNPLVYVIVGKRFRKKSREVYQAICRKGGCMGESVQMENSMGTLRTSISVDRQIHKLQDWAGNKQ
Source text: 4. Rat Uterus functional assay Trautshold, Handbook of Expt. Pharmacol. […] The Trautshold method was used without changes to the parameters. U.S. Pat. No. 4,693,993, at Column 14, line 10 gives a general description of data analysis for this assay. In this table, I=inhibitor, and numbers in parenthesis are pA2. Agonist activity are given as percent BK activity.

[3] = target: T2, bradykinin receptors in Guinea Pig Ileum (Cavia porcellus, UniProt O70526); test: Guinea Pig Ileum functional assay; type: cell-based; conditions: number in parenthesis is pA2, read-out: Ileum, pA2 (I=inhibitor) (converted)
T2 construct: describes the Guinea Pig Ileum assay used to analyze the present compounds; from tissue; host or cells: isolated guinea pig ileum
T2 sequence (O70526 1-372): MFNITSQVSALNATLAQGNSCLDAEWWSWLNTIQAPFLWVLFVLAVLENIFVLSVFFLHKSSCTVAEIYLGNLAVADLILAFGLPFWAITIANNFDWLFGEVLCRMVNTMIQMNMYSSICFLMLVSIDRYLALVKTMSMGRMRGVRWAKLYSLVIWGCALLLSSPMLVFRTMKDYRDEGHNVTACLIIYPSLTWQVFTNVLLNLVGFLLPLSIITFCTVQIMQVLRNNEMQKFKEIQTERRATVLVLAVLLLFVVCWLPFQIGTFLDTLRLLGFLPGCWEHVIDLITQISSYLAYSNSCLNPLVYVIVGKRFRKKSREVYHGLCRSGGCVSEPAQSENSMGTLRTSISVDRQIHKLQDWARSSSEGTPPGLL
Source text: 5. Guinea Pig Ileum functional assay
Trautshold, Handbook of Expt. Pharmacol. Vol 25, Springer Verlag pp 53-55 (1970) describes the Guinea Pig Ileum assay used to analyze the present compounds. The Trautshold method was used without changes to the parameters. U.S. Pat. No. 4,693,993, at Column 14, line 10 gives a general description of data analysis for this assay.
In this table, I=inhibitor, and numbers in parenthesis are pA2. Agonist activity are given as percent BK activity.

Compound	Kb [2] [nM]	Kb [3] [nM]	further results
RPPGFSPFR [BK]			plasma half-life ([1]; caused by CPN): ≤ 15 s; cleavage by ACE on a single passage through the pulmonary circulation ([1]; single passage, pulmonary circulation): more than 99%
DArg-Arg-Pro-Hyp-Gly-Igl-Ser-DIgl-Oic-Arg [Compound B9430]			bioavailability (hypotensive action of BK; intragastric administration): low; activity following intragastric administration (hypotensive action of BK; intragastric): active; duration of block of the hypotensive action of BK (hypotensive action of BK; single intravenous injection): more than four; duration of block of BK action (hypotensive action of BK; subcutaneous injection): 48 h; duration of block of BK action (BK action): more than 24 hrs
N=C(N)NCCC[C@@H](N)C(=O)N[C@@H](CCCNC(=N)N)C(=O)N1CCC[C@H]1C(=O)N1C[C@H](O)C[C@H]1C(=O)NCC(=O)N[C@H](C(=O)N[C@@H](CO)C(=O)N[C@H](Cc1c(F)c(F)c(F)c(F)c1F)C(=O)N[C@H](C(=O)N[C@@H](CCCNC(=N)N)C(=O)O)C1CCCCC1)C1Cc2ccccc2C1 [Compound B10180, DArg-Arg-Pro-Hyp-Gly-Igl-Ser-Df5f-Chg-Arg]	6.31	7.94	
N=C(N)NCCC[C@H](NC(=O)[C@H](Cc1c(F)c(F)c(F)c(F)c1F)NC(=O)[C@@H](Cc1c(F)c(F)c(F)c(F)c1F)NC(=O)[C@H](CO)NC(=O)[C@@H](NC(=O)CNC(=O)[C@@H]1C[C@@H](O)CN1C(=O)[C@@H]1CCCN1C(=O)[C@H](CCCNC(=N)N)NC(=O)[C@H](CCCNC(=N)N)NC(=O)CCC(=O)OCCOC(=O)CCC(=O)N[C@@H](CCCNC(=N)N)C(=O)N[C@@H](CCCNC(=N)N)C(=O)N1CCC[C@H]1C(=O)N1C[C@H](O)C[C@H]1C(=O)NCC(=O)N[C@H](C(=O)N[C@@H](CO)C(=O)N[C@H](Cc1c(F)c(F)c(F)c(F)c1F)C(=O)N[C@@H](Cc1c(F)c(F)c(F)c(F)c1F)C(=O)N[C@@H](CCCNC(=N)N)C(=O)O)C1Cc2ccccc2C1)C1Cc2ccccc2C1)C(=O)O [Compound B10236, EGS-(Arg-Arg-Pro-Hyp-Gly-Igl-Ser-Df5f-f5f-Arg)2]		39.8	Kb ([2]; rat uterus, number in parenthesis is pA2, read-out: Uterus, pA2 (I=inhibitor) (converted)): 20 nM
N=C(N)NCCC[C@@H](N)C(=O)N[C@@H](CCCNC(=N)N)C(=O)N1CCC[C@H]1C(=O)N1C[C@H](O)C[C@H]1C(=O)NCC(=O)N[C@H](C(=O)N[C@@H](CO)C(=O)N[C@H](Cc1c(F)c(F)c(F)c(F)c1F)C(=O)N1[C@H](C(=O)N[C@@H](CCCNC(=N)N)C(=O)O)C[C@@H]2CCCC[C@@H]21)C1Cc2ccccc2C1 [Compound B10044, DArg-Arg-Pro-Hyp-Gly-Igl-Ser-Df5f-Oic-Arg]	7.94	3.98	
N=C(N)NCCC[C@H](NC(=O)[C@H](CCCCN)NC(=O)[C@@H](N)CCCCN)C(=O)N1CCC[C@H]1C(=O)N1C[C@H](O)C[C@H]1C(=O)NCC(=O)N[C@H](C(=O)N[C@@H](CO)C(=O)N[C@H](Cc1c(F)c(F)c(F)c(F)c1F)C(=O)N1[C@H](C(=O)O)C[C@@H]2CCCC[C@@H]21)C1Cc2ccccc2C1 [Compound B10148, Lys-Lys-Arg-Pro-Hyp-Gly-Igl-Ser-Df5f-Oic]	63.1	1000	
N=C(N)NCCC[C@@H](N)C(=O)N[C@@H](CCCNC(=N)N)C(=O)N1CCC[C@H]1C(=O)N1C[C@H](O)C[C@H]1C(=O)NCC(=O)N[C@@H](Cc1cccs1)C(=O)N[C@@H](CO)C(=O)N[C@H](Cc1c(F)c(F)c(F)c(F)c1F)C(=O)N(CC(=O)N[C@@H](CCCNC(=N)N)C(=O)O)C1CCCCCC1 [Compound B10204, DArg-Arg-Pro-Hyp-Gly-Thi-Ser-Df5f-Nc7G-Arg]	631	12.6	
N=C(N)NCCC[C@@H](N)C(=O)N[C@@H](CCCNC(=N)N)C(=O)N1CCC[C@H]1C(=O)N[C@@H](C(=O)NCC(=O)N[C@H](C(=O)N[C@@H](CO)C(=O)N[C@H](Cc1c(F)c(F)c(F)c(F)c1F)C(=O)N1[C@H](C(=O)N[C@@H](CCCNC(=N)N)C(=O)O)C[C@@H]2CCCC[C@@H]21)C1Cc2ccccc2C1)C1Cc2ccccc2C1 [Compound B10216, DArg-Arg-Pro-DIgl-Gly-Igl-Ser-Df5f-Oic-Arg]	39.8	158	
